# Source: publication PMC7126369, “Identification of a selective inhibitor of IDH2/R140Q enzyme that induces cellular differentiation in leukemia cells” (Cell Communication and Signaling : CCS, 2020)
# Positions count from the first letter of the chain named. Read-outs that look alike come from different tables or passages of the source.
# Legend:
# IDH2/R140Q = biological target: T1, IDH2/R140Q (Homo sapiens, UniProt P48735, R140Q); assay: Diaphorase/resazurin coupled NADPH depletion enzymatic assay, IDH2/R140Q homodimer; type: biochemical; details: read-out: IC50 for α-KG reduction
# T1 construct: FLAG (C); purchased BPS Bioscience
# T1 sequence (P48735 40-452 R140Q): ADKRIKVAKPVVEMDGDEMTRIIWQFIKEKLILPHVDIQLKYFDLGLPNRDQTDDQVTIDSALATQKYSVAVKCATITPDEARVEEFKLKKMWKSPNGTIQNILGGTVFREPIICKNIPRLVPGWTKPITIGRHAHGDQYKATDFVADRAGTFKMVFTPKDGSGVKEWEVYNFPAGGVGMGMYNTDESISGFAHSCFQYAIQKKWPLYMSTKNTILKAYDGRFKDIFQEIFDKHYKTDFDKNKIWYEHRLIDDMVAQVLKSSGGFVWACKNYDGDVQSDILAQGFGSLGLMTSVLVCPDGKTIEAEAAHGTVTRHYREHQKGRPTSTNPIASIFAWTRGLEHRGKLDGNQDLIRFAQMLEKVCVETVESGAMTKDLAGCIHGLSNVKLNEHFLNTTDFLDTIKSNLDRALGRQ
# Procedure: (§1) The compounds were dissolved to a concentration of 20 mM in pure DMSO. Diaphorase/resazurin coupled NADPH deletion or production assays were used to measure the activity of IDH mutants or wild-type IDH (IDH/WT) enzymes. […] Afterwards, 20 μL of the gradient concentrations of compound dilution were added to this mixture and incubated at 25 °C for 1 h or 16 h. […] Further, 20 μL of 4X assay buffer containing 0.6 mM isocitrate was used for enzymatic reaction.
# IDH2/WT = biological target: T2, IDH2/WT (Homo sapiens, UniProt P48735); assay: Diaphorase/resazurin coupled NADPH production enzymatic assay, IDH2/WT; type: biochemical; details: incubation time 16 h, read-out: IC50 for isocitrate to α-KG
# T2 construct: FLAG (C); purchased BPS Bioscience
# T2 sequence (P48735 40-452): T1 sequence (P48735 40-452 R140Q) with Q101R
# Procedure: as §1
# IDH1/R132H = biological target: T3, IDH1/R132H (Homo sapiens, UniProt O75874, R132H); assay: Enzymatic assay, IDH1/R132H; type: biochemical; details: incubation time 16 h, read-out: IC50 for α-KG reduction
# T3 construct: FLAG (C); purchased BPS Bioscience
# Procedure: Analogously, a mixture of the IDH1/R132H enzyme (0.2 μg/mL) and NADPH (30 μM) was prepared in the assay buffer [10 mM MgCl2, 150 mM NaCl, 20 mM Tris-Cl (pH 7.5), 0.05% BSA, and 2 mM β-mercaptoethanol], after which compound dilutions were added and incubated for 16 h at 25 °C. The activity was measured using the same method as for IDH2/R140Q.
# IDH1/WT = biological target: T4, IDH1/WT (Homo sapiens, UniProt O75874); assay: Enzymatic assay, IDH1/WT; type: biochemical; details: incubation time 16 h, read-out: IC50 for isocitrate to α-KG
# T4 construct: FLAG (C); purchased BPS Bioscience
# Procedure: A mixture of the IDH1/WT (0.08 μg/mL) and NADP (50 μM) was prepared in the assay buffer [10 mM MgCl2, 150 mM NaCl, 20 mM Tris (pH 7.5), 2 mM β-mercaptoethanol, and 0.05% BSA], after which compound dilutions were added and incubated for 16 h at 25 °C. Other operations were referred to the assay of IDH2/WT.
# TF-1(IDH2/R140Q) cells [1] = assay: D-2-HG assay (LC-MS) in cells; type: cell-based; details: 72 h, 3 days of treatment, read-out: IC50 of intracellular D-2-HG production
# Procedure: (§2) TF-1(IDH2R140Q) cells were seeded in a 12-well plate at a density of 5 × 10^4/mL. The test compound was added in different concentration gradients (3000, 1000, 333.33, 111.11, 37.04, 12.35, 4.12, and 1.37 nM). The cells were collected after 3 days of treatment. The cell pellet was suspended in 100 μL 80% aqueous methanol solution, containing 1 μg/mL Phenacetin as the internal standard. The cell lysate was centrifuged at 13,000 rpm for 10 min. The precipitate was removed at 4 °C and stored in an − 80 °C refrigerator. Before injection, the cell lysate was centrifuged again at 13,000 rpm for 10 min. The supernatant was transferred into the liquid phase cannula for injection. The test instrument was a Q Exactive™ Plus-Orbitrap™ MS, Thermo Scientific benchtop quadrupole-orbitrap high resolution mass spectrometer. The column used was Waters™ ACQUITY™ UPLC HSS-T3–1.8 μm, […] × 100 mm (part No. 186003539). The mobile phase was: Phase A, 0.1% aqueous formic acid (chromatographically pure); and Phase B, acetonitrile (chromatographically pure). The gradients were set as 1% B for 1.5 min → 70% B for 0.5 min → 1% B for 1.5 min → 0% B. The column was re-equilibrated for 2 min between injections. A temperature of 40 °C was set for the column with a flow rate of 0.2 mL/min. […] D-2-HG and Phenacetin were monitored by mass transitions of m/z 147 → m/z 129 and m/z 178 → m/z 147, respectively. […]
# TF-1(IDH2/R140Q) cells [2] = assay: GM-CSF-independent proliferation assay; type: cell-based; details: 3 μM, 7 days
# Procedure: (§3) The cell proliferation was detected by CellTiter 96® AQueous One Solution Cell Proliferation Assay Kit (Promega) according to the protocol. Briefly, TF-1(WT) and TF-1(IDH2/R140Q) cells were cultured in complete growth medium that is supplemented with 2 ng/mL GM-CSF. Prior to the proliferation assay, the cells were washed three times with PBS to eliminate GM-CSF. These cells were transferred to 96 well plates (5000 cells per well), with each well containing 100 μL growth medium without GM-CSF, and treated with CP-17 (1 or 3 μM) for 7 days. Then 20 μL per well of CellTiter 96® AQueous One Solution Reagent were added to each well. The plate was incubated at 37 °C for 4 h in a humidified, 5% CO2 atmosphere, and then the absorbance at 490 nm was recorded using a 96-well plate reader. Three independent repetitive experiments were carried out and analyzed by Graphpad Prism 5.0. […] T-test was used to compare the difference significance with control group and the data meet the assumption of the test.
# TF-1(WT) cells = assay: GM-CSF-independent proliferation assay; type: cell-based; details: 3 μM, 7 days
# Procedure: as §3
# TF-1(IDH2/R140Q) cells [3] = assay: EPO-induced differentiation assay; type: cell-based; details: 1 μM, 7 days
# Procedure: TF-1(WT) and TF-1(IDH2/R140Q) cells were washed three times by PBS to remove GM-CSF and treated with CP-17 (1 or 3 μM) and 5 ng/mL EPO for 7 days.
# as §2, with “pure).” for “pure). The gradients were set as 1% B for 1.5 min → 70% B for 0.5 min → 1% B for 1.5 min → 0% B. The column was re-equilibrated for 2 min between injections. A temperature of 40 °C was set for the column with a flow rate of 0.2 mL/min.”
# TF-1(IDH2/R140Q) cells [4] = assay: Histone methylation assay (western blot); type: cell-based; details: 1 and 3 μM, 7 days
# Procedure: TF-1(WT) and TF-1(IDH2/R140Q) cells were treated with CP-17 (1 or 3 μM) in the presence of recombinant human GM-CSF for 7 days and then lysed and evaluated for the expression of H3K9me3, H3K4me3, H3K27me3, and H3 with specific antibodies by western blot. The total amount of histone H3 was used as the loading control. Three independent repetitive experiments were carried out.
# [5] = system: AML patients carrying mutant IDH2; parameters: method as in PMID 29346478, PMID 29346477; details: patients responding to Enasidenib; cited from earlier work
# T4 sequence (O75874 whole entry): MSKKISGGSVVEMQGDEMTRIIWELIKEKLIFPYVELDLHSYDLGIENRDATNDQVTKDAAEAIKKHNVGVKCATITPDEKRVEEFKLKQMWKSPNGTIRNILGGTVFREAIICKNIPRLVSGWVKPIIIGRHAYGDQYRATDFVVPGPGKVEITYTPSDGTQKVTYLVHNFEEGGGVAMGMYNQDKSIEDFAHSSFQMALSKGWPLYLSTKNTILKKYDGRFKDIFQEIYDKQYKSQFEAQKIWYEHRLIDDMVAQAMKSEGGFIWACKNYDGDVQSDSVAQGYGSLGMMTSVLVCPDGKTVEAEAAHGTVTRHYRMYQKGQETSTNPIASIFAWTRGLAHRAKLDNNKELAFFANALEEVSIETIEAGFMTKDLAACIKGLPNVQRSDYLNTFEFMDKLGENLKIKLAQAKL
# T3 sequence (O75874 whole entry R132H): as the sequence (O75874 whole entry) above, with R132H counted along it
Structure (SMILES),IC50 (IDH2/R140Q; incubation time 1 h),IC50 (IDH2/R140Q; incubation time 16 h),IC50 (IDH2/WT),IC50 (IDH1/R132H),IC50 (IDH1/WT),IC50 (TF-1(IDH2/R140Q) cells [1]),GM-CSF-independent growth (TF-1(IDH2/R140Q) cells [2]),Proliferation (TF-1(WT) cells),"EPO-induced differentiation (color change, hemoglobin γ expression) (TF-1(IDH2/R140Q) cells [3])","Histone methylation (H3K4me3, H3K9me3, H3K27me3) (TF-1(IDH2/R140Q) cells [4])",Patients who develop differentiation syndrome [5]
"Cc1ccc(Cl)cc1NC(=O)Nc1cc(NC(=O)c2ccccc2)ccc1N1CCCC1 [CP-17, N-(3-(3-(5-chloro-2-methylphenyl)ureido)-4-(pyrrolidin-1-yl)phenyl)benzamide]",99.9 nM,40.8 nM,2270 nM,> 5000 nM,> 5000 nM,141 nM,significantly inhibited,no obvious effect,restored the EPO-induced color change and hemoglobin γ expression,dose-dependent decrease in histone methylation,–
CC(C)(O)CNc1nc(Nc2ccnc(C(F)(F)F)c2)nc(-c2cccc(C(F)(F)F)n2)n1 [Enasidenib],–,–,–,–,–,–,–,–,–,–,11.7%
